Assay [1] has as its target T1, BTK (Homo sapiens, UniProt Q06187).
T1 construct: full-length LIMK1/2, RIPK1, BTK, and LRRK2 cloned in a frame in a NanoLuc-vector (Promega); host or cells: HEK293T
Kind of assay: NanoBRET cellular target engagement. Conditions: HEK293T cells, read-out: EC50 (NanoBRET), Figure 4C. It is filed as cell-based. Here is the method:
(§1) The assay was performed as described previously.[31],[32] In brief, full-length LIMK1/2, RIPK1, BTK, and LRRK2 cloned in a frame in a NanoLuc-vector (Promega) were transfected into HEK293T cells (ATCC CRL-1573) using FuGENE HD (Promega, E2312), and proteins were allowed to express for 20 h. The serially diluted inhibitor and NanoBRET Kinase Tracer (Promega) used at the previously determined Tracer KD,app (Table S1) were pipetted into white 384-well plates (Greiner 781 207) using an ECHO 550 acoustic dispenser (Labcyte). The corresponding transfected cells were added and reseeded at a density of 2 × 10^5 cells/mL after trypsinization and resuspension in Opti-MEM without phenol red (Life Technologies). The system was allowed to equilibrate for 2 h at 37 °C and 5% CO2 prior to BRET measurements. To measure BRET, a NanoBRET Nano-Glo substrate and an extracellular NanoLuc inhibitor (Promega, N2160) were added as per the manufacturer's protocol, and filtered luminescence was measured on a PHERAstar plate reader (BMG Labtech) equipped with a luminescence filter pair (a 450 nm BP filter (donor) and a 610 nm LP filter (acceptor)). Competitive displacement data were then plotted using GraphPad Prism 10 software using a normalized three-parameter curve fit with the following equation: Y = 100/( [drawing 1] ).
On the technique in general: BRET reads energy transfer from a luciferase to a nearby fluorophore.

In assay [2] the target is T2, LRRK2 (Homo sapiens, UniProt Q5S007). Kind of assay: NanoBRET cellular target engagement. The following applies: LRRK2, HEK293T cells; read-out: EC50 (NanoBRET), Figure 4C. It is filed as cell-based. The procedure:
as §1

Assay [3] has as its target 468 kinases including some pathogenic mutants (Homo sapiens, UniProt O75747). Kind of assay: biochemical. Format: binding. Conditions: PIK3C2G (Entrez PIK3C2G), 100 nM; read-out: Percent Control.
The target of assay [4] is 468 kinases including some pathogenic mutants (Homo sapiens, UniProt P45983). Kind of assay: biochemical. It is filed as binding. Conditions: JNK1 (Entrez MAPK8), 1000 nM; read-out: Percent Control.
468 kinases including some pathogenic mutants (Homo sapiens, UniProt P45983), sequence (P45983 whole entry, change not shown): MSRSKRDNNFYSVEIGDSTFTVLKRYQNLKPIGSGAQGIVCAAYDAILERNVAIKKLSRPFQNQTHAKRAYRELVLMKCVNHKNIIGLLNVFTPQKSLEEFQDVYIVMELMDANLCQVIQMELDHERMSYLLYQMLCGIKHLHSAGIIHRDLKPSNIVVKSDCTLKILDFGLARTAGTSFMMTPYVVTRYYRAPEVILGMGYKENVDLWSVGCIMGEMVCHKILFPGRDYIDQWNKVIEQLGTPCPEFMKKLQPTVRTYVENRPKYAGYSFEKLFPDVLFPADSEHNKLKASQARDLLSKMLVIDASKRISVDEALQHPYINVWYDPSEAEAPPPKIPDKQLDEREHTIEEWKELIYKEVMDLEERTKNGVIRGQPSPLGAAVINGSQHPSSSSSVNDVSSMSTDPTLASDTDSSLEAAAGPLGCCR
The target of assay [5] is 468 kinases including some pathogenic mutants (Homo sapiens, UniProt P45984). Kind of assay: biochemical. The following applies: JNK2 (Entrez MAPK9), 100 nM; read-out: Percent Control. Format: binding.
468 kinases including some pathogenic mutants (Homo sapiens, UniProt P45984), sequence (P45984 whole entry, change not shown): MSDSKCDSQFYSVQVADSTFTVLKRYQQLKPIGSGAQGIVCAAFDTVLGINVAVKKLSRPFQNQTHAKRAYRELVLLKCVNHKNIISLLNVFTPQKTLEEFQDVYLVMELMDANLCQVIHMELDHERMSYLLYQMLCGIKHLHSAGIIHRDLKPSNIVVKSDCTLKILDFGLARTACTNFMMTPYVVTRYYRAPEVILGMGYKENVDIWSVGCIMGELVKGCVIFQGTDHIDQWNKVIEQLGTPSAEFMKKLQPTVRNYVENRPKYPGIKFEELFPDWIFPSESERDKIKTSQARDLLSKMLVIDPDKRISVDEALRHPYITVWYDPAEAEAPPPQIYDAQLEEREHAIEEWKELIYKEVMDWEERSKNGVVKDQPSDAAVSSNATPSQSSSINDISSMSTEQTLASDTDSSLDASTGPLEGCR
In assay [6] the target is 468 kinases including some pathogenic mutants (Homo sapiens, UniProt Q15349). Kind of assay: biochemical. The following applies: read-out: Percent Control. Format: binding.
468 kinases including some pathogenic mutants (Homo sapiens, UniProt Q15349), sequence (Q15349 whole entry, change not shown): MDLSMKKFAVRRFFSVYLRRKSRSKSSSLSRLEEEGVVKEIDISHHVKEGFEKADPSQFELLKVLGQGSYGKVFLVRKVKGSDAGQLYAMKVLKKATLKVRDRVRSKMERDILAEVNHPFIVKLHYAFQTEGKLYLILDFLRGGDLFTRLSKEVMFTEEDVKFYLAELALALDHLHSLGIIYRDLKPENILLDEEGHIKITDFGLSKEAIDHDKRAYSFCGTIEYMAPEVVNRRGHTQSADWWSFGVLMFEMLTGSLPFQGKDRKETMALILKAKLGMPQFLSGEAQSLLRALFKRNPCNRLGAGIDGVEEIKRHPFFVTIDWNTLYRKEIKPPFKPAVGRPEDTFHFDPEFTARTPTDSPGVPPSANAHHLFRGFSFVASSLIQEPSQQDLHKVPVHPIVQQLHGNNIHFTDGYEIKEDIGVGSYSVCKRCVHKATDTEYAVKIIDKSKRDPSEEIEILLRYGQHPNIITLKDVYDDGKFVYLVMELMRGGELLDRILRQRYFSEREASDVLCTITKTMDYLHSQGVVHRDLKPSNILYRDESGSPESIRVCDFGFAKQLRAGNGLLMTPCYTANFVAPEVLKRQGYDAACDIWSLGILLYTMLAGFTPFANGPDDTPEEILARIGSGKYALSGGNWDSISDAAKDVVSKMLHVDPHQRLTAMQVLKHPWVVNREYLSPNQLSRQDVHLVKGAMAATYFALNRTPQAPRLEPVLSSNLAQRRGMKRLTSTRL
The target in assay [7] is 468 kinases including some pathogenic mutants (Homo sapiens, UniProt Q8IYT8). Kind of assay: biochemical. Format: binding. Conditions: ULK2 (Entrez ULK2), 1000 nM; read-out: Percent Control.
In assay [8] the target is T3, RIPK1 (Homo sapiens, UniProt Q13546).
T3 construct: full-length LIMK1/2, RIPK1, BTK, and LRRK2 cloned in a frame in a NanoLuc-vector (Promega); host or cells: HEK293T
T3 sequence (Q13546 1-671): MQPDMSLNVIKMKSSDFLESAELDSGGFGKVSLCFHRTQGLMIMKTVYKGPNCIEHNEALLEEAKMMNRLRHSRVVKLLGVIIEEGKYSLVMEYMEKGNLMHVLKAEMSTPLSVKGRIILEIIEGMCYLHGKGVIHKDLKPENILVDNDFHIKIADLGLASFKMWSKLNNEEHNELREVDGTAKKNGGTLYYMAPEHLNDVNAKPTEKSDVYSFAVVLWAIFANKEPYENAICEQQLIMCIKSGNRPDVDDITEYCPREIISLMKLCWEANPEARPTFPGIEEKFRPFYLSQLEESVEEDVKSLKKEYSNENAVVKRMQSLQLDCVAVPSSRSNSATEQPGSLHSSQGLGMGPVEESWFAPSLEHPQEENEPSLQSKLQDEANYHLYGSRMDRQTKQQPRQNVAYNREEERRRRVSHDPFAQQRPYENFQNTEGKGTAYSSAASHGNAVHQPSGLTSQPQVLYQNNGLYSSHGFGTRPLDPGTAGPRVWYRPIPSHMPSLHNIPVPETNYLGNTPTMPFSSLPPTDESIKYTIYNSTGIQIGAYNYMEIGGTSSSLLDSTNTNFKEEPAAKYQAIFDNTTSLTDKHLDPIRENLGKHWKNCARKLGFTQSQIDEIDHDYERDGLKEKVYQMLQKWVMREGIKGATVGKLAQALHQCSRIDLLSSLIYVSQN
Kind of assay: scanMAX KINOMEscan (Eurofins). It is filed as binding.

Assay [9] concerns the target T2, LRRK2. Kind of assay: scanMAX KINOMEscan (Eurofins). Format: binding.
Assay [10] deals with KIT(L576P) (Homo sapiens, UniProt P10721, L576P). Kind of assay: biochemical. It is filed as binding. The following applies: 1000 nM, read-out: Percent Control.
KIT(L576P), sequence (P10721 26-976 L576P): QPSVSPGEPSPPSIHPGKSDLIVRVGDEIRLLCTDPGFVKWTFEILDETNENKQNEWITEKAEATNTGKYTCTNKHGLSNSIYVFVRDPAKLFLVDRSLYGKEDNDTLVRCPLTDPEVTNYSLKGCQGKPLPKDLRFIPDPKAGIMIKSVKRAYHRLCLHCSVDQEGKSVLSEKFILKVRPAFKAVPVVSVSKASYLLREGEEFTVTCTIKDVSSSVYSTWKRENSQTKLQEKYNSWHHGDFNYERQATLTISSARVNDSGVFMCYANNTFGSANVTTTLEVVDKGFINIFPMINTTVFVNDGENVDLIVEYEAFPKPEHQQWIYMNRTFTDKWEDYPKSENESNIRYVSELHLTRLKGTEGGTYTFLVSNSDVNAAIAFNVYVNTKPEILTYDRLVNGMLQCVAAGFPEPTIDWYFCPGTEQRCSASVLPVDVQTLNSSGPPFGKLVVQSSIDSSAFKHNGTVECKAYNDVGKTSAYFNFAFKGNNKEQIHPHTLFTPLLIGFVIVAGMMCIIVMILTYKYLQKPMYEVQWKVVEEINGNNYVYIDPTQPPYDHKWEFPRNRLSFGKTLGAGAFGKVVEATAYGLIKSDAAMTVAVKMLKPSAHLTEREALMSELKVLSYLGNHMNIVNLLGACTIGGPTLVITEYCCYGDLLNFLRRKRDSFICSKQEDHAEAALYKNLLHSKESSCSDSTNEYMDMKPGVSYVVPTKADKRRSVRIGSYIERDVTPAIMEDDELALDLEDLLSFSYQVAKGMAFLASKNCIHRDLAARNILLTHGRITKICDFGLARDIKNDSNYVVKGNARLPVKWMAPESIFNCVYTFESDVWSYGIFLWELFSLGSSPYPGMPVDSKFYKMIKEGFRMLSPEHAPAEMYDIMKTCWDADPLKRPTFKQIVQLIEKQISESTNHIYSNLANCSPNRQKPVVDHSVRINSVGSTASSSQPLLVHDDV
In assay [11] the target is FLT3(D835Y) (Homo sapiens, UniProt P36888, D835Y). Kind of assay: biochemical. Format: binding. Conditions: 1000 nM, read-out: Percent Control.
Assay [12] addresses ABL1(F317I)-phosphorylated (Homo sapiens, UniProt P00519, F317I). Kind of assay: biochemical. It is filed as binding. The following applies: read-out: Percent Control.
For assay [13], the target named is ABL1(F317L)-phosphorylated (Homo sapiens, UniProt P00519, F317L). Kind of assay: biochemical. It is filed as binding. Conditions: read-out: Percent Control.
Assay [14] addresses ABL1(M351T)-phosphorylated (Homo sapiens, UniProt P00519, M351T). Kind of assay: biochemical. The following applies: read-out: Percent Control. Format: binding.
Assay [15] concerns the target FLT3(K663Q) (Homo sapiens, UniProt P36888, K663Q). Kind of assay: biochemical. Format: binding. Conditions: 1000 nM, read-out: Percent Control.
Assay [16] deals with KIT(A829P) (Homo sapiens, UniProt P10721, A829P). Kind of assay: biochemical. Format: binding. Conditions: compound concentration 100 nM; Entrez KIT; read-out: Percent Control.
KIT(A829P), sequence (P10721 26-976 A829P): as the sequence (P10721 26-976 L576P) above, with P551L, A804P counted along it
Assay [17] addresses PIK3CA(H1047Y) (Homo sapiens, UniProt P42336, H1047Y). Kind of assay: biochemical. Format: binding. The following applies: compound concentration 100 nM; Entrez PIK3CA; read-out: Percent Control.

By EC50 is commonly meant the concentration at which the effect is half-maximal.

Like-named read-outs stand apart in the source and are kept apart here.

T2 sequence (Q5S007 whole entry): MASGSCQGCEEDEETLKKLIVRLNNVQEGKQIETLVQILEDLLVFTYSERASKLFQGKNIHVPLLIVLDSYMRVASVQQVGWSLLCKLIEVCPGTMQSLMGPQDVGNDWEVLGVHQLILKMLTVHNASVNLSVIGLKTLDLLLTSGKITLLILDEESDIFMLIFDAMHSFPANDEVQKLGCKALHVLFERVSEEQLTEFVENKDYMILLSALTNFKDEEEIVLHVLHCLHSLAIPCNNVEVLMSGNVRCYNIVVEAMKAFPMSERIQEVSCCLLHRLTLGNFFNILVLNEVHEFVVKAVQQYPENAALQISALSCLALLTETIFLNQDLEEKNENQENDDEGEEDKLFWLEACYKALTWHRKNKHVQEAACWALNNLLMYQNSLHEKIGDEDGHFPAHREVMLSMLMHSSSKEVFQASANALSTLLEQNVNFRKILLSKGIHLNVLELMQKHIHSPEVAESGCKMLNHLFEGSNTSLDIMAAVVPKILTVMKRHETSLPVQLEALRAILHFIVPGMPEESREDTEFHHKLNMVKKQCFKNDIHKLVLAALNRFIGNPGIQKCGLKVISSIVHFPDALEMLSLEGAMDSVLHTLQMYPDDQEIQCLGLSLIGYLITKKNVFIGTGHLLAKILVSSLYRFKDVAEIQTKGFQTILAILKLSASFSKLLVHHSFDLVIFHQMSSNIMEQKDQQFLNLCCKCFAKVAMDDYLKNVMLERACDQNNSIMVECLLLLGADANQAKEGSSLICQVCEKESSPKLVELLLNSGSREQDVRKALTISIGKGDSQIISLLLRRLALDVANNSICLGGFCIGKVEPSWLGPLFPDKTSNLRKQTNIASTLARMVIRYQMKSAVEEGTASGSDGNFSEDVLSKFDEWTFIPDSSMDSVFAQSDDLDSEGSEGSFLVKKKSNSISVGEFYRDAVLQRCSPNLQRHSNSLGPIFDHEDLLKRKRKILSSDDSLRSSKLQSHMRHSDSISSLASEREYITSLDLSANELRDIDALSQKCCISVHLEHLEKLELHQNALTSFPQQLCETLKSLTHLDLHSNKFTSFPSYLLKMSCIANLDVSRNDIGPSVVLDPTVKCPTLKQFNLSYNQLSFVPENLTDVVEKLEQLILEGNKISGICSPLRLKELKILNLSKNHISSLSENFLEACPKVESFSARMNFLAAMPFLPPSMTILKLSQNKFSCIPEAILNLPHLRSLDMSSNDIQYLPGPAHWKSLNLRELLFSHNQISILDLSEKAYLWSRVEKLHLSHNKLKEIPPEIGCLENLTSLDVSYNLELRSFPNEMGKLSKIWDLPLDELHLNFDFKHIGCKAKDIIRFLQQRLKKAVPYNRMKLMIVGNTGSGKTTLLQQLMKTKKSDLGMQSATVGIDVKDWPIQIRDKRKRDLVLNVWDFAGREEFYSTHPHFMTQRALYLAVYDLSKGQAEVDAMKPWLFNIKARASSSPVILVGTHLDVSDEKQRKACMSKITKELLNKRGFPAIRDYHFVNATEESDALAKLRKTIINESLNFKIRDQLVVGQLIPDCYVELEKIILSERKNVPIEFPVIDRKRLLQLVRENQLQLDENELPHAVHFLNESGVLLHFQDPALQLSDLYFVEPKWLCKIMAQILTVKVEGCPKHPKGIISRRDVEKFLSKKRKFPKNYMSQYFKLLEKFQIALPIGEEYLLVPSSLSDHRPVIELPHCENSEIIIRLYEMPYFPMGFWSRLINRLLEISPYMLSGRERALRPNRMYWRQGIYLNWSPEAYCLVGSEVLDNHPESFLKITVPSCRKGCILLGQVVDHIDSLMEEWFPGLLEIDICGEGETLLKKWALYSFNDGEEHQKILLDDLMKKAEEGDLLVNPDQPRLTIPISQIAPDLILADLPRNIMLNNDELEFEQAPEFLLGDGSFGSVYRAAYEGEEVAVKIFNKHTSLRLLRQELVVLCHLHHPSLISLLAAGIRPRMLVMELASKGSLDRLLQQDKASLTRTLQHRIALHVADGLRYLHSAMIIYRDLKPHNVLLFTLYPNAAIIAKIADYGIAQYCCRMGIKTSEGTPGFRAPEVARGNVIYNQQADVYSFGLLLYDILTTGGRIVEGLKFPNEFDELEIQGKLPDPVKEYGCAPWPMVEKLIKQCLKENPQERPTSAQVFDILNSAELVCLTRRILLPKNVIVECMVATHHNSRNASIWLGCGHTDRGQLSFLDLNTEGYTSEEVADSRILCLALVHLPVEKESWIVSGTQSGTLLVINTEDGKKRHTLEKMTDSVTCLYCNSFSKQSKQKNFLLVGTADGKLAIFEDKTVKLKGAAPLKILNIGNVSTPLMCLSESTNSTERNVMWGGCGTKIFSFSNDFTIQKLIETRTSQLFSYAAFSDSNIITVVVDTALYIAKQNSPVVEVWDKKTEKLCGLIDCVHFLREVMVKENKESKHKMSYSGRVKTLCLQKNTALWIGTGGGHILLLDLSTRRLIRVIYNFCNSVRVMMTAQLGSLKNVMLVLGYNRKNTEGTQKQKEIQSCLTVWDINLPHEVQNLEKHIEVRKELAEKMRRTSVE

On to `CN1C(=O)[C@@H](N2CCc3c(nn(Cc4ccccc4)c3C(N)=O)C2=O)COc2cc(Cl)ccc21` [Compound 10, (S)-2-benzyl-6-(8-chloro-5-methyl-4-oxo-2,3,4,5-tetrahydrobenzo[b][1,4]oxazepin-3-yl)-7-oxo-4,5,6,7-tetrahydro-2H-pyrazolo[3,4-c]pyridine-3-carboxamide], for which the EC50 in assay [1] and in assay [2] was over 50 µM in each case. Moreover, the remaining activity at 0.1 µM came to 67% in assay [3]; 80% in [5]; 100% in assay [6] (RSK3(Kin.Dom.1-N-terminal) (Entrez RPS6KA2), 100 nM); 86% in assay [16]; 100% in assay [17]. Further, the remaining activity at 1 µM was found to be 100% in assay [4]; 100% in assay [6] (RSK3(Kin.Dom.2-C-terminal) (Entrez RPS6KA2), 1000 nM); 100% in [7]; 92% in [10]; 94% in [11]; 100% in [12]. The remaining activity at 1 µM in assay [13], in assay [14] and in [15] was 100% each time. Further, the remaining binding at 0.1 µM in [8] (RIPK1 (Entrez RIPK1), 100 nM, read-out: Percent Control) is 55%; in assay [9] (LRRK2 (Entrez LRRK2), 100 nM, read-out: Percent Control), 84%. The remaining binding at 1 µM in assay [8] (RIPK1, 1 μM, read-out: POC (Top Hits @ 1 μM)) came to 23%; in assay [8] (RIPK1, 1000 nM, read-out: Percent Control) it was 23%; in assay [9] (LRRK2, 1 μM, read-out: POC (Top Hits @ 1 μM)), 62%; in assay [9] (LRRK2, 1000 nM, read-out: Percent Control), 62%.

(Values after publication PMC12090182, “Repurposing of the RIPK1-Selective Benzo[1,4]oxazepin-4-one Scaffold for the Development of a Type III LIMK1/2 Inhibitor” (ACS Chemical Biology, 2025).)
